Experimental findings from patent US20200291350A1, “HEPATOCYTE CONSTRUCT AND METHOD FOR PRODUCING THE SAME” (NIHON KOHDEN CORPORATION, priority 2019, published 2020) are described below.

What all share (type): cell-based
The subject of one test is PHH/NHDF cell sheet. In words: Effect of added agent on ballooning of human hepatocytes in PHH/NHDF hepatocyte construct (H&E staining). The conditions noted are these: metformin 500 μM added on day 1; PHH/NHDF cell sheet on day 11 or day 4. How it is done: (§1) At pre-determined time points, cell sheet samples were washed by pre-warmed PBS twice and fixed in 4% paraformaldehyde at room temperature for 1 h. Fixed cell sheets were embedded in paraffin, sliced into 4 μm sections and deparaffinized for standard histological staining with hematoxylin and eosin (HE). For immunostainings of cytokeratin 8+18 (CK8/18), sections were treated with Dako proteinase K (Agilent, Santa Clara, Calif., US) for antigen retrieval, incubated in Dako REAL peroxidase-blocking solution (Agilent) to quench endogenous peroxidase activity, and then blocked in Blocking One Histo (Nacalai Tesque, Kyoto, Japan). After that, the sections were incubated with mouse anti-human CK8/18 at 25-fold dilution (Abeam, Cambridge, UK) followed by incubation with horseradish […] donkey anti-mouse IgG H&L (Abeam). The sections were dyed with Dako Liquid DAB+Substrate Chromogen System (Agilent) and the nuclei were stained with hematoxylin. Finally, the sections were mounted, dried and imaged with a light microscope (Nikon).
As PHHs and NHDFs, PHHs and NHDFs used in Example 1 were used.
Primary human hepatocytes (PHH)/NHDF co-culture and production of a hepatocyte construct were performed in the same manner as in Example 1 described above. […]

Test [1] relates to mouse hepatocyte/NHDF cell sheet. In words: Effect of added agent on ballooning of mouse hepatocytes in PMH/NHDF hepatocyte construct (H&E staining). To be noted: metformin 500 μM added on day 1; mouse hepatocyte/NHDF cell sheet day 8. As for the experimental part: as §1
Primary mouse hepatocytes (PMH) were obtained in the same manner as in Example 3.
As NHDFs, NHDFs used in Example 1 were used.
Primary mouse hepatocytes (PMH)/NHDF co-culture and production of a hepatocyte construct were performed in the same manner as in Example 1 except that PMHs were used in place of the above-mentioned PHHs. […]

For test [2] the test system is unchanged. As to the kind of experiment: Hepatocellular ballooning in mouse hepatocyte/NHDF cell sheet made with mitomycin C-treated NHDFs (H&E staining). The conditions noted are these: NHDFs treated with mitomycin C 6 μg/mL for 2.5 hours before co-culture with PMHs; cell sheet day 8; vs untreated NHDFs. As for the experimental part: as §1
Primary mouse hepatocytes (PMH) were isolated from the liver of a mouse by a modified two-step collagenase perfusion method and purified by a 45% percoll density gradient centrifugation method. The viability of PMHs was 90%.
As NHDFs, NHDFs used in Example 1 were used. […]

On to `CN(C)C(=N)N=C(N)N` [metformin], for which the hepatocellular ballooning result (in the test with PHH/NHDF cell sheet; in test [1]) was “suppressed” in each case.
On to `CO[C@@]12[C@H](COC(N)=O)C3=C(C(=O)C(C)=C(N)C3=O)N1C[C@@H]1N[C@@H]12` [mitomycin C], for which the hepatocellular ballooning entry in test [2] is “suppressed”.
